Measured values from PMC5390315 (Scientific Reports, 2017).
Like-named read-outs stand apart in the source and are kept apart here.

Experiments:
[1] = test system: panel of seven human tumor cell lines; test: Antiproliferative activity, range over panel of seven human tumor cell lines; format: cell-based; conditions: read-out: IC50 values, range over the cell line panel
Description: (§1) Human T-cell leukemia (Jurkat) and human B-cell leukemia (SEM and RS4;11) cells were grown in RPMI-1640 medium (Gibco, Milano, Italy). Breast adenocarcinoma (MCF-7), human cervix carcinoma (HeLa), human lung adenocarcinoma (A549) and human colon adenocarcinoma (HT-29) cells were grown in DMEM medium (Gibco, Milano, Italy), all supplemented with 115 units/mL penicillin G (Gibco, Milano, Italy), 115 μg/mL streptomycin (Invitrogen, Milano, Italy), and 10% fetal bovine serum (FBS; Invitrogen, Milano, Italy). Stock solutions (10 mM) of the different compounds were obtained by dissolving them in DMSO. Individual wells of a 96-well tissue culture microtiter plate were inoculated with 100 μL of complete medium containing 8 × 10^3 cells. The plates were incubated at 37 °C in a humidified 5% CO2 incubator for 18 h prior to the experiments. After medium removal, 100 μL of fresh medium containing the test compound at different concentrations was added to each well in triplicate and incubated at 37 °C for 72 h. The percentage of DMSO in the medium never exceeded 0.25%. This was also the maximum DMSO concentration in all cell-based assays described below.

[2] = test system: bovine brain tubulin; test: Inhibition of tubulin polymerization; format: biochemical; conditions: tubulin at 10 μM; read-out: Tubulin assembly IC50 ± S.D
Description: (§2) To evaluate the effect of the compounds on tubulin assembly in vitro[41], varying concentrations of compounds were preincubated with 10 μM bovine brain tubulin in 0.8 M monosodium glutamate (pH adjusted to 6.6 with HCl in a 2.0 M stock solution) at 30 °C and then cooled to 0 °C. After addition of 0.4 mM GTP, the mixtures were transferred to 0 °C cuvettes in a recording spectrophotometer and warmed to 30 °C. Tubulin assembly was followed turbidimetrically at 350 nm. […] The capacity of the test compounds to inhibit colchicine binding to tubulin was measured as described, except that the reaction mixtures contained 1 μM tubulin, 5 μM [^3H]colchicine and 1 or 5 μM test compound.

[3] = test system: HeLa; test: Antiproliferative MTT assay, HeLa; format: cell-based, human; conditions: Homo sapiens, HeLa, 72 h, mean ± SE
Description: as §1

[4] = test system: RS 4;11; test: Antiproliferative MTT assay, RS 4;11; format: cell-based, human; conditions: Homo sapiens, RS4-11, 72 h, mean ± SE
Description: as §1

[5] = test system: HUVECs; test: HUVEC scratch wound motility assay; format: cell-based, human
Description: (§3) HUVECs were prepared from human umbilical cord veins, as previously described. The adherent cells were maintained in M200 medium supplemented with LSGS (Low Serum Growth Supplement), containing FBS, hydrocortisone, hEGF, bFGF, heparin, gentamycin/amphotericin (Life Technologies, Monza, Italy). Once confluent, the cells were detached by a trypsin–EDTA solution and used in experiments from the first to sixth passages.
The motility assay for HUVECs was based on “scratch” wounding of a confluent monolayer. Briefly, HUVECs (1x10^5) were seeded onto 6-well plates coated with 0.1% collagen type I (BD Biosciences, Italy) in complete medium until a confluent monolayer was formed. The cells were wounded using a pipette tip, and wells were washed with PBS to remove undetached cells. Then, the cells were treated with the test compounds, and, at different times from the scratch, the cells were photographed under a light microscope. At all indicated time points, the wound width was measured in four areas and compared with the initial width.

[6] = test system: Jurkat; test: Antiproliferative MTT assay, Jurkat; format: cell-based, human; conditions: Homo sapiens, Jurkat, 72 h, mean ± SE
Description: as §1

[7] = test system: tubulin; test: Inhibition of [3H]colchicine binding to tubulin; conditions: tubulin 1 μM, [3H]colchicine 5 μM
Description: as §2

[8] = test system: HUVECs; test: Disruption of capillary-like tubes on Matrigel; format: cell-based, human; conditions: 24 h
Description: as §3
Matrigel matrix (Basement Membrane Matrix, BD Biosciences, Italy) was kept at 4 °C for 3 h, when 230 μL of Matrigel solution was added to each well of a 24-well plate. After gelling at 37 °C for 30 min, gels were overlaid with 500 μL of medium containing 6 × 10^4 HUVECs. The cells were incubated over Matrigel for 6 h to allow capillary tubes to form. Different concentrations of test compound were added in the cultures and incubated for different times, and the disappearance of existing vasculature was monitored and photographed (five fields for each well: the four quadrants and the center) at a 10x magnification. Phase contrast images were recorded using a digital camera and saved as TIFF files. Image analysis was carried out using ImageJ image analysis software, and dimensional (percent area covered by HUVECs and total length of HUVECs network per field) and topological parameters (number of meshes and branching points per field) were determined. Values were expressed as percent change from control cultures grown with complete medium.

[9] = test system: SEM cells; test: Antiproliferative MTT assay, SEM; format: cell-based, human; conditions: Homo sapiens, 72 h, mean ± SE
Description: as §1

[10] = test system: BL6-B16 murine melanoma cells; test: Mouse allograft tumor model (BL6-B16 melanoma); format: in vivo
From the text: Animal experiments were approved by our local animal ethics committee (OPBA, Organismo Preposto al Benessere degli Animali, Università degli Studi di Brescia, Italy) and were executed in accordance with national guidelines and regulations. Procedures involving animals and their care conformed with institutional guidelines that comply with national and international laws and policies (EEC Council Directive 86/609, OJ L 358, 12 December 1987) and with “ARRIVE” guidelines (Animals in Research Reporting In Vivo Experiments). Six week old C57BL/6 mice (Charles River, Calco) were injected subcutaneously into the dorsolateral flank with 2.5x10^5 BL6-B16 murine melanoma cells in 200 μL of PBS. When tumors were palpable, animals were treated intraperitoneally every other day with different doses of test compounds dissolved in 50 μL of DMSO. Tumors were measured in two dimensions, and tumor volume was calculated according to the formula V = (D × d^2)/2, where D and d are the major and minor perpendicular tumor diameters, respectively.

[11] = test system: panel of five cancer cell lines; parameters: method as in PMID 23117171; conditions: read-out: IC50 range (Figure 1); cited from earlier work
[12] = test system: PBL stimulated with PHA; test: Cytotoxicity in PHA-stimulated peripheral blood lymphocytes; format: cell-based; conditions: Homo sapiens, Lymphocyte, 72 h, MTT, mean ± SEM, read-out: IC50 PBLPHA
Description: (§4) Peripheral blood lymphocytes (PBL) from healthy donors were obtained from human peripheral blood (leucocyte rich plasma- buffy coats) from healthy volunteers using the Lymphoprep (Fresenius KABI Norge AS) gradient density centrifugation.
(§5) After extensive washing, cells were resuspended (1.0 × 10^6 cells/mL) in RPMI-1640 with 10% FBS and incubated overnight. For cytotoxicity evaluations in proliferating PBL cultures, non-adherent cells were resuspended at 5 × 10^5 cells/mL in growth medium, containing 2.5 μg/mL PHA (Irvine Scientific). Different concentrations of the test compounds were added, and viability was determined 72 h later by the MTT test. For cytotoxicity evaluations in resting PBL cultures, non-adherent cells were resuspended (5 × 10^5 cells/mL) and treated for 72 h with the test compounds, as described above.

[13] = test system: MCF-7; test: Antiproliferative MTT assay, MCF-7; format: cell-based, human; conditions: Homo sapiens, MCF7, 72 h, mean ± SE
Description: as §1

[14] = test system: A549; test: Antiproliferative MTT assay, A549; format: cell-based, human; conditions: Homo sapiens, A549, 72 h, mean ± SE
Description: as §1

[15] = test system: HUVECs; test: Cytotoxicity in HUVECs; format: cell-based; conditions: Homo sapiens, HUVEC; primary HUVECs
Description: as §3

[16] = test system: HT-29; test: Antiproliferative MTT assay, HT-29; format: cell-based, human; conditions: Homo sapiens, HT-29, 72 h, mean ± SE
Description: as §1

[17] = test system: PBL not stimulated with PHA; test: Cytotoxicity in resting peripheral blood lymphocytes; format: cell-based; conditions: Homo sapiens, Lymphocyte, 72 h, MTT, mean ± SEM, read-out: IC50 PBLresting
Description: as §4, §5

Compound	IC50 [2] [nM]	IC50 [3] [nM]	IC50 [4] [nM]	IC50 [6] [nM]	Colchicine binding % inhibition ± S.D, 1 μM drug [7] [%]	IC50 [9] [nM]	IC50 [11] [nM]	IC50 [13] [nM]	IC50 [14] [nM]	IC50 [16] [nM]	melting point [°C]	Colchicine binding % inhibition ± S.D, 5 μM drug [7] [%]	further results
COc1ccc(/C=C\c2cc(OC)c(OC)c(OC)c2)cc1O [CA-4, combretastatin A-4, reference compound]	[…]	4 ± 0.1	0.8 ± 0.2	5 ± 0.6	93 ± 0.8	5 ± 0.1	–	–	–	–	–	–	IC50 [1]: 0.8 to 3100 nM; HUVEC cell migration (wound healing) ([5]; 10 nM, 6 and 24 h): […]; antivascular effect on Matrigel preformed tubular structures ([8]; 10 nM): significant antivascular activity
COc1ccc(/C=C\c2cc(OC)c(OC)c(OC)c2)cc1OP(=O)(O)O [CA-4P, CA-4 disodium phosphate, reference compound]	–	–	–	–	–	–	–	–	–	–	–	–	reduction in tumor mass [10]: 28.0%
COc1cc(-c2nc(C)sc2-c2ccc(C)cc2)cc(OC)c1OC [Compound 3a]	–	–	–	–	–	–	520 to 1900	–	–	–	–	–	–
COc1ccc(-c2sc(C)nc2-c2cc(OC)c(OC)c(OC)c2)cc1 [Compound 3b]	–	–	–	–	–	–	500 to 3400	–	–	–	–	–	–
CCOc1ccc(-c2sc(C)nc2-c2cc(OC)c(OC)c(OC)c2)cc1 [Compound 3c]	–	–	–	–	–	–	43 to 3300	–	–	–	–	–	–
COc1cc(-c2nc(C)sc2-c2ccc3ccccc3c2)cc(OC)c1OC [Compound 3d]	–	–	–	–	–	–	33 to 700	–	–	–	–	–	–
COc1cc(-c2nc(C)oc2-c2ccc3ccccc3c2)cc(OC)c1OC [Compound 4a, 4-(3,4,5-Trimethoxyphenyl)-2-methyl-5-(naphthalen-3-yl)oxazole]	1200 ± 100	2.1 ± 0.5	14.3 ± 6.2	73.2 ± 5.2	47 ± 0.8	40.2 ± 11	–	1.1 ± 0.5	12.6 ± 5.4	0.5 ± 0.1	104 to 116	74 ± 5	IC50 [12]: 21100 ± 1200 nM; IC50 ([1]; Homo sapiens): 0.5 to 73.2 nM; IC50 [15]: > 100000 nM; IC50 [17]: 15500 ± 1500 nM
COc1ccc(-c2oc(C)nc2-c2cc(OC)c(OC)c(OC)c2)cc1F [Compound 4g, 5-(3-Fluoro-4-methoxyphenyl)-4-(3,4,5-trimethoxyphenyl)-2-methyloxazole]	1200	2.4 ± 0.6	0.35 ± 0.15	4.6 ± 1	51 ± 1	3.9 ± 0.8	–	2.5 ± 0.7	0.65 ± 0.08	3.3 ± 1.1	127 to 129	78 ± 0.5	IC50 ([1]; Homo sapiens): 0.35 to 4.6 nM
CCOc1ccc(-c2nc(C)oc2-c2cc(OC)c(OC)c(OC)c2)cc1 [Compound 5f, 4-(4-Ethoxyphenyl)-5-(3,4,5-trimethoxyphenyl)-2-methyloxazole]	1300 ± 100	2 ± 0.8	11.9 ± 6.3	50.7 ± 10.8	–	13.3 ± 4.2	–	0.4 ± 0.08	1.5 ± 0.44	1.9 ± 0.8	116 to 118	72 ± 2	IC50 [12]: 17700 ± 2100 nM; IC50 [15]: > 100000 nM; HUVEC cell migration (wound healing) ([5]; 100 nM, 6 h and 24 h): significantly reduced; IC50 [17]: 34500 ± 4500 nM; antivascular effect on Matrigel preformed tubular structures ([8]; 100 nM (highest concentration)): did not show a significant antivascular effect
